Measurements reported in patent US20030181436A1, “Treatment for AIDS, HIV, and other related diseases and compounds for use therewith” (priority 2001, published 2003).

Tests used:
Format in all cases: cell-based
[1] = system: ACH-2 cells; assay: ACH-2 assay, compound toxicity by MTS dye reduction; set-up: Y. CC / 9′. CC: unit not given here
Method: (§1) At assay termination the assay plates were stained with the soluble tetrazolium-based dye MTS (CellTiter® Reagent, Promega) to determined cell viability and quantify compound toxicity. […] At termination of the assay 20 μL of MTS reagent was added per well. The wells were incubated for 4 h at 37° C., 5% CO2. Adhesive plate scalers were used in place of the lids, the sealed plate was inverted several times to mix the soluble formazan product and the plate was read spectrophotometrically at 490 nm with a 650 nm reference wavelength on a Molecular Devices Vmax plate reader.
(§2) U1 and ACH-2 cells were obtained from the AIDS Research and Reference Reagent Program and maintained under standard culture conditions in RPMI 1640 supplemented with 10% fetal bovine serum (heat inactivated), supplemented with 2 mM […], 100U/ml penicillin and 100 μg/ml, streptomycin. U1 cells were derived from the histocytic leukemia cell line U937, and contain a single integrated copy (HIV IIIB) […] a cytokine and/or phorbol inducible provirus. ACH-2 cells are derived from the A3.01 T lymphoblastic cell line, and contain 2 copies of the HIV IIIB provirus, however only one is cytokine and/or phorbol inducible. Cultures were maintained in such a way as to ensure exponential growth of the populations. At the time of the assay, cells were collected by centrifugation and counted by hemacytometer. If cell viability by Trypan Blue dye exclusion was less than 70% the assay was terminated. The cells were adjusted to 5×10^4 cells/mL and 100 μL, placed in 96 well plates with 100 μL media containing a final concentration of […] TNFα and the test compound. Cultures were incubated for 3 days and supernatants harvested. Compound toxicity was determined by MTS dye reduction. Virus expression was measured by supernatant reverse transcriptasc activity.

[2] = system: U1 cells; assay: U1 assay, compound toxicity by MTS dye reduction; set-up: TC50: unit not given here
Method: as §1, §2

[3] = system: HIV; assay: HeLa CD4 LTR β-gal time of addition assay; conditions: single round, high M.O.I.
Description: This time of addition assay measures reproducible events from initial virus binding to the trans activation of the β-galactosidase reporter by newly produced Tat protein. This is a single round of infection assay and is thus “cleaner” and more “precise” than a multi-round time of addition assay. […] Since it is hypothesized that the K and Z compounds work by interfering with virus transcription the later possibility seems more likely. Thus the use of a time of addition assay with PBMCs was utilized.

Zinc Iodiscorbate [Compound Z]
TOXICITY VALUES (MTS) MEAN ([1]; 0.00063 μg/ml, exp 2): 0.975 O, p.
TOXICITY VALUES (MTS) MEAN ([1]; 0.002 μg/ml, exp 2): 0.929 O, p.
TOXICITY VALUES (MTS) MEAN ([1]; 0.00626 μg/ml, exp 2): 0.961 O, p.
9′. CC ([1]; 0.02 μg/ml, exp 2): 101.1
TOXICITY VALUES (MTS) MEAN ([1]; 0.02 μg/ml, exp 2): 1.006 O, p.
TOXICITY VALUES (MTS) MEAN ([1]; 0.0625 μg/ml, exp 2): 0.894 O, p.
9′. CC ([1]; 0.2 μg/ml, exp 2): 81.0
TOXICITY VALUES (MTS) MEAN ([1]; 0.2 μg/ml, exp 2): 0.807 O, p.
9′. CC ([1]; 0.625 μg/ml, exp 2): 72.2
TOXICITY VALUES (MTS) MEAN ([1]; 0.625 μg/ml, exp 2): 0.718 O, p.
9′. CC ([1]; 2 μg/ml, exp 2): 70.0
TOXICITY VALUES (MTS) MEAN ([1]; 2 μg/ml, exp 2): 0.696 O, p.
9′. CC ([1]; 6.25 μg/ml, exp 2): 40.1
TOXICITY VALUES (MTS) MEAN ([1]; 6.25 μg/ml, exp 2): 0.399 O, p.
9′. CC ([1]; 20 μg/ml, exp 2): 0.0
TOXICITY VALUES (MTS) MEAN ([1]; 20 μg/ml, exp 2): 0.000 O, p.
9′. CC ([1]; 62.5 μg/ml, exp 2): 0.0
TOXICITY VALUES (MTS) MEAN ([1]; 62.5 μg/ml, exp 2): 0.000 O, p.
9′. CC ([1]; 200 μg/ml, exp 2): 0.0
TOXICITY VALUES (MTS) MEAN ([1]; 200 μg/ml, exp 2): 0.000 O, p.
TOXICITY VALUES (MTS) MEAN ([1]; 0.00063 μG/Ml, exp 1): 1.061 O. D.
TOXICITY VALUES (MTS) MEAN ([1]; 0.002 μG/Ml [c9], exp 1): 1.049 O. D.
TOXICITY VALUES (MTS) MEAN ([1]; 0.002 μG/Ml [c11], exp 1): 1.081 O. D.
TOXICITY VALUES (MTS) MEAN ([1]; 0.00625 μG/Ml, exp 1): 1.019 O. D.
TOXICITY VALUES (MTS) MEAN ([1]; 0.0625 μG/Ml, exp 1): 0.984 O. D.
TOXICITY VALUES (MTS) MEAN ([1]; 0.2 μG/Ml, exp 1): 1.002 O. D.
TOXICITY VALUES (MTS) MEAN ([1]; 0.625 μG/Ml, exp 1): 0.939 O. D.
% CC ([1]; 2 μG/Ml, exp 1): 88.1%
TOXICITY VALUES (MTS) MEAN ([1]; 2 μG/Ml, exp 1): 0.885 O. D.
% CC ([1]; 6.25 μG/Ml, exp 1): 81.8%
TOXICITY VALUES (MTS) MEAN ([1]; 6.25 μG/Ml, exp 1): 0.822 O. D.
% CC ([1]; 20 μG/Ml, exp 1): 85.1%
TOXICITY VALUES (MTS) MEAN ([1]; 20 μG/Ml, exp 1): 0.856 O. D.
% CC ([1]; 62.5 μG/Ml, exp 1): 6.3%
TOXICITY VALUES (MTS) MEAN ([1]; 62.5 μG/Ml, exp 1): 0.063 O. D.
% CC ([1]; 200 μG/Ml, exp 1): 1.3%
TOXICITY VALUES (MTS) MEAN ([1]; 200 μG/Ml, exp 1): 0.013 O. D.
TC50 ([1]; ACH2, exp 1, Table 2): ITC50 (μG/Ml) = 38.94
TC50 ([1]; ACH-2, experiment 1, Table 1): 39
TC50 ([1]; ACH-2, experiment 2, Table 1): 4.8
ACH2 TC50 ([1]; exp 2): 4.8 mg/L
ACH2 TC50 ([1]; exp 2, listed as COMPOUND Z): TC50 (vg/mol) = 4.84 μg/ml
TOXICITY VALUES MEAN ([2]; 0.00063 ug/ml, exp 2): 1.055 O. D.
% CC ([2]; 0.002 ug/ml, exp 2): 90.5%
TOXICITY VALUES MEAN ([2]; 0.002 ug/ml, exp 2): 0.963 O. D.
TOXICITY VALUES MEAN ([2]; 0.00625 ug/ml, exp 2): 1.103 O. D.
TOXICITY VALUES MEAN ([2]; 0.02 ug/ml, exp 2): 1.064 O. D.
TOXICITY VALUES MEAN ([2]; 0.0625 ug/ml, exp 2): 1.072 O. D.
TOXICITY VALUES MEAN ([2]; 0.2 ug/ml, exp 2): 1.031 O. D.
TOXICITY VALUES (MTS) MEAN ([2]; 0.625 ug/ml, exp 1): 1.791 O. D.
% CC ([2]; 0.625 ug/ml, exp 2): 81.6%
TOXICITY VALUES MEAN ([2]; 0.625 ug/ml, exp 2): 0.868 O. D.
TOXICITY VALUES (MTS) MEAN ([2]; 2 ug/ml, exp 1): 1.732 O. D.
% CC ([2]; 2 ug/ml, exp 2): 82.3%
TOXICITY VALUES MEAN ([2]; 2 ug/ml, exp 2): 0.876 O. D.
% CC ([2]; 6.25 ug/ml [c2], exp 2): 35.3%
TOXICITY VALUES MEAN ([2]; 6.25 ug/ml [c2], exp 2): 0.376 O. D.
TOXICITY VALUES MEAN ([2]; 6.25 ug/ml [c4], exp 2): 1.118 O. D.
TOXICITY VALUES (MTS) MEAN ([2]; 6.25 ug/ml, exp 1): 1.649 O. D.
% CC ([2]; 20 ug/ml, exp 1): 91.7%
TOXICITY VALUES (MTS) MEAN ([2]; 20 ug/ml, exp 1): 1.625 O. D.
% CC ([2]; 20 ug/ml, exp 2): 61.7%
TOXICITY VALUES MEAN ([2]; 20 ug/ml, exp 2): 0.658 O. D.
% CC ([2]; 62.5 ug/ml, exp 1): 77.8%
TOXICITY VALUES (MTS) MEAN ([2]; 62.5 ug/ml, exp 1): 1.379 O. D.
% CC ([2]; 200 ug/ml, exp 1): 3.6%
TOXICITY VALUES (MTS) MEAN ([2]; 200 ug/ml, exp 1): 0.063 O. D.
% CC ([2]; 200 ug/ml, exp 2): 7.1%
TOXICITY VALUES MEAN ([2]; 200 ug/ml, exp 2): 0.076 O. D.
TC50 ([2]; U1, experiment 1, Table 1): 114
TC50 ([2]; U1, experiment 2, Table 1): 39
U1 TC50 ([2]; exp 2): 38.8 mg/L
U1 TC50 ([2]; exp 2, listed as COMPOUND Z): TC50 (uglml) = 38.80 μg/ml
inhibition of HIV replication [3]: failed to inhibit
